Source: paper PMC9902381, “Binding and functional structure-activity similarities of 4-substituted 2,5-dimethoxyphenyl isopropylamine analogues at 5-HT2A and 5-HT2B serotonin receptors” (Frontiers in Pharmacology, 2023)
Like-named read-outs stand apart in the source and are kept apart here.

Assays:
[1] = molecular target: T1, human 5-HT2B receptor (Homo sapiens, UniProt P41595); assay: 5-HT2B receptor functional activity (agonist) using Ca2+ mobilization assay in Flp-In T-REx 293 cells; assay type: cell-based; conditions: for Maximal 5-HT effect: maximal effect relative to 5-HT = 100%; for Emax: Flp-In-T-REx-293, read-out: Maximal 5-HT effect; for agonist effect at 5-HT2B receptors: highest concentration examined (10,000 nM)
T1 construct: host or cells: Flp-In T-REx 293 cells (HEK 293)
T1 sequence (P41595 whole entry): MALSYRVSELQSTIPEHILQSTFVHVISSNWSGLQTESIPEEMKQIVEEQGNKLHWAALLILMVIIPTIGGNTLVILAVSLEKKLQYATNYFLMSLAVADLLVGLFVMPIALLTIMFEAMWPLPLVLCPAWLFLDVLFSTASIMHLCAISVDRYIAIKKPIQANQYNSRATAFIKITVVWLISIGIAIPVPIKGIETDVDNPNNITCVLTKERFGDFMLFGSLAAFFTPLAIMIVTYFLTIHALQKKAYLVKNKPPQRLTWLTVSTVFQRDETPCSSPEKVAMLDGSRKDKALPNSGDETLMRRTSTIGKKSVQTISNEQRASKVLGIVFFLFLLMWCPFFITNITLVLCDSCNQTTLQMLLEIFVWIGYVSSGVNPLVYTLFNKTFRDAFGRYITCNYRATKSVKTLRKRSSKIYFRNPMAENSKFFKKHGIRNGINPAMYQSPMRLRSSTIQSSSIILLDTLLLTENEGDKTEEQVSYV

[2] = molecular target: human 5-HT2A; design: method as in Nelson et al., 1999; conditions: cloned human 5-HT2A vs [125I]DOI; ref Nelson et al., 1999; cited from earlier work
[3] = substituent constant; ref Hansch et al. 1973; cited from earlier work
[4] = molecular target: rat 5-HT2; design: method as in Seggel et al., 1990; conditions: rat brain 5-HT2 vs [3H]ketanserin; ref Seggel et al., 1990; cited from earlier work
[5] = molecular target: human 5-HT2B; design: method as in Nelson et al., 1999; conditions: human 5-HT2B vs [3H]5-HT; ref Nelson et al., 1999; cited from earlier work
[6] = test system: human 5-HT2B receptors; design: method as in Porter et al. (1999); conditions: CHO cells, intracellular calcium; ref Porter et al. (1999); cited from earlier work
[7] = test system: rat 5-HT2A; design: method as in Seggel et al., 1990; Glennon 2017; conditions: ref Seggel et al., 1990; Glennon 2017; cited from earlier work
[8] = molecular target: T1, human 5-HT2B receptor; assay: 5-HT2B receptor antagonism of 10 nM 5-HT Ca2+ signal in Flp-In T-REx 293 cells; assay type: cell-based
Procedure: A stable cell line was generated expressing the human 5-HT2B receptor using the Flp-In T-REx system (Thermo Fisher) ([Younkin et al., 2016]; [Steele et al., 2021]). Briefly, 5-HT2B receptor coding plasmid was obtained from cDNA Resource Center (cat # HTR02B0000). The 5-HT2B receptor cDNA was subcloned into the pcDNA/FRT/TO expression plasmid, and was co-transfected with pOG44 plasmid (coding the Flp recombinase) in Flp-In T-REx 293 cells. Cells were selected using 100 μg/mL of hygromycin and resistant cells were expanded and stored in liquid N2 for later use. For experimentation, stable cell lines were plated in Matrigel-coated 96-well imaging plates in Dulbecco’s Modified Eagle Medium (DMEM) containing 10% fetal bovine serum (FBS) and 5% penicillin/streptomycin, and the medium was supplemented with doxycycline (1 μg/mL) to upregulate the expression of the receptor 3 days before the experiment. Then, cells were loaded with Fura 2-AM for 30 min in Ca^2+ imaging solution (IS) consistent of 130 NaCl, 4 KCl, 2 CaCl2, 1 MgCl2, 10 HEPES, 10 glucose (in mM, pH adjusted to 7.4). […] Three wells containing cells were analyzed for each concentration per experiment day. […] All data were processed used Fiji software by ImageJ2 which allowed manual selection of cells and measurement of fluorescence. […]

[9] = test system: 5-HT2B receptor; design: method as in Huang et al. (2009); conditions: multiple functional assays; ref Huang et al. (2009); cited from earlier work
[10] = agonist potency, Ca2+ mobilization, Hill slope 1.0
[11] = agonist potency, Ca2+ mobilization, Hill slope 1.0, read-out: h5-HT2B EC50

| Structure (SMILES) | h5-HT2B pEC50 ± SEM [1, 10] | EC50 [1, 11] [nM] | Maximal 5-HT effect [1] [%] | potency relative to R (−) enantiomer at 5-HT2B ([1]; optical isomers of 2,5-DMA) | h5-HT2A pKi [2] | π (lipophilic character of 4-position substituent) [3] | σp (electronic character of 4-position substituent) [3] | r5-HT2 pKi [4] | EC50 [1] [nM] | Emax [1] [%] | h5-HT2B pKi [5] | % of the effect of 5-HT at human 5-HT2B [6] [%] | rat 5-HT2A functional action [7] | agonist effect at 5-HT2B receptors [1] | action on the 5-HT-mediated response at 5-HT2B [8] | 5-HT2B receptor agonist action [9] |
| --- | --- | --- | --- | --- | --- | --- | --- | --- | --- | --- | --- | --- | --- | --- | --- | --- |
| COc1ccc(OC)c(C[C@H](C)N)c1 [S (+)1a] | 6.32 ± 0.15 | 480 | 100 | about six times more potent | – | – | – | – | – | – | – | – | – | – | – | – |
| COc1cc([N+](=O)[O-])c(OC)cc1CC(C)N (stereo not shown) [1h] | – | – | – | – | 8.26 | -0.28 | 0.78 | 6.52 | 89 | 77 | 6.78 | – | – | – | – | – |
| COc1cc(CC(C)N)c(OC)cc1Cl (stereo not shown) [1c] | – | – | – | – | 8.85 | 0.71 | 0.23 | 6.66 | – | – | 7.50 | – | – | – | – | – |
| COc1cc(CC(C)N)c(OC)cc1Br (stereo not shown) [1d] | – | – | – | – | 9.22 | 0.86 | 0.23 | – | 8.7 | 70 | 7.53 | 69 | – | – | – | – |
| CCOc1cc(OC)c(CC(C)N)cc1OC (stereo not shown) [1g] | – | – | – | – | 7.14 | 0.38 | -0.24 | 5.66 | 557 | 70 | 6.12 | – | – | – | – | – |
| COc1ccc(OC)c(C[C@@H](C)N)c1 (single isomer, unassigned) [R (−) enantiomer] | 5.49 ± 0.16 | 3240 | 87 | – | – | – | – | – | – | – | – | – | – | – | – | – |
| CCCc1cc(OC)c(CC(C)N)cc1OC (stereo not shown) [1j] | – | – | 75 | – | 9.05 | 1.55 | -0.13 | 7.16 | 55 | – | – | – | – | – | – | – |
| CCCCCCc1cc(OC)c(CC(C)N)cc1OC (stereo not shown) [1k] | – | – | 0 | – | 10.00 | 3.05 | -0.13 | 8.60 | > 10000 | – | 7.52 | – | lack rat 5-HT2A agonist action and behave as antagonists | failed to produce an agonist effect | behaved as antagonists | – |
| COc1ccc(OC)c(CC(C)N)c1 (stereo not shown) [1a, 1-(2,5-dimethoxyphenyl)isopropylamine] | – | – | – | – | 6.68 | – | 0 | 5.28 | 3390 | 93 | 5.98 | – | – | – | – | – |
| COc1cc(CC(C)N)c(OC)cc1F (stereo not shown) [1b] | – | – | – | – | 7.38 | 0.14 | 0.06 | 5.96 | 439 | 82 | 6.64 | – | – | – | – | – |
| COc1cc(CC(C)N)c(OC)cc1Cc1ccccc1 (stereo not shown) [1m] | – | – | – | – | 9.40 | 2.01 | -0.09 | 8.15 | > 10000 | 0 | 7.64 | – | lack rat 5-HT2A agonist action and behave as antagonists | failed to produce an agonist effect | behaved as antagonists | – |
| COc1cc(OC)c(OC)cc1CC(C)N (stereo not shown) [1f] | – | – | – | – | 7.24 | -0.02 | -0.27 | 5.90 | – | – | 6.51 | – | – | – | – | – |
| COc1cc(C(C)(C)C)c(OC)cc1CC(C)N (stereo not shown) [1l] | – | – | – | – | 8.43 | 1.98 | -0.20 | 7.72 | 37.2 | 69 | 7.61 | – | – | – | – | – |
| COc1cc(CC(C)N)c(OC)cc1C#N (stereo not shown) [1i] | – | – | – | – | 7.34 | -0.57 | 0.66 | 5.62 | – | – | 6.11 | – | – | – | – | – |
| COc1cc(CC(C)N)c(OC)cc1I (stereo not shown) [1e] | – | – | 71 | – | – | 1.12 | 0.18 | 7.72 | 37.2 | – | 7.70 | 65 | – | – | – | potent 5-HT2B receptor agonist |
